Laboratory results published in PubChem BioAssay (NCI).
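A five-concentration, 48-hour dose response in 96-well plates underlies each endpoint, interpolated linearly between surrounding concentrations. The concentration for 50% growth inhibition is given as GI50. The concentration for full growth arrest is given as TGI.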

Legend:
Assay in all cases: DTP human tumour cell line panel, 48 h
OVCAR-5 ovarian = tested on: OVCAR-5 ovarian
OVCAR-4 ovarian = tested on: OVCAR-4 ovarian
PC-3 prostate = tested on: PC-3 prostate
RXF 393 renal = tested on: RXF 393 renal
DU-145 prostate = tested on: DU-145 prostate
OVCAR-8 ovarian = tested on: OVCAR-8 ovarian
MDA-MB-435 = tested on: MDA-MB-435
MALME-3M melanoma = tested on: MALME-3M melanoma
HOP-62 NSCLC = tested on: HOP-62 NSCLC
UO-31 renal = tested on: UO-31 renal
SK-OV-3 ovarian = tested on: SK-OV-3 ovarian
MOLT-4 leukemia = tested on: MOLT-4 leukemia
786-0 renal = tested on: 786-0 renal
HL-60(TB) leukemia = tested on: HL-60(TB) leukemia
HOP-92 NSCLC = tested on: HOP-92 NSCLC
SW-620 colon = tested on: SW-620 colon
SF-539 CNS = tested on: SF-539 CNS
SK-MEL-5 melanoma = tested on: SK-MEL-5 melanoma
SF-268 CNS = tested on: SF-268 CNS
SK-MEL-28 melanoma = tested on: SK-MEL-28 melanoma
HCT-15 colon = tested on: HCT-15 colon
HS 578T breast = tested on: HS 578T breast
NCI-H23 lung = tested on: NCI-H23 lung
U251 CNS = tested on: U251 CNS
ACHN renal = tested on: ACHN renal
UACC-257 melanoma = tested on: UACC-257 melanoma
M14 melanoma = tested on: M14 melanoma
BT-549 breast = tested on: BT-549 breast

## CS(=O)(=O)Nc1cncc(-c2ccc3ncnc(Nc4ccc(F)c(Cl)c4)c3c2)c1
OVCAR-5 ovarian
  GI50: 2.4 µM
  TGI: 22 µM
OVCAR-4 ovarian
  GI50: 4.96 µM
  TGI: 96.6 µM
PC-3 prostate
  GI50: 2.69 µM
  TGI: 15 µM
RXF 393 renal
  GI50: 1.49 µM
  TGI: 5.87 µM
DU-145 prostate
  GI50: 2.25 µM
  TGI: 15.2 µM
OVCAR-8 ovarian
  GI50: 3.73 µM
  TGI: 23.7 µM
MDA-MB-435
  GI50: 3.92 µM
  TGI: 17 µM
MALME-3M melanoma
  GI50: 2.08 µM
  TGI: 13.6 µM
HOP-62 NSCLC
  GI50: 2.51 µM
  TGI: 20.2 µM
UO-31 renal
  GI50: 1.76 µM
  TGI: 13.8 µM
SK-OV-3 ovarian
  GI50: 2.09 µM
  TGI: 6.54 µM
MOLT-4 leukemia
  GI50: 1.6 µM
  TGI: 4.65 µM
786-0 renal
  GI50: 2.7 µM
  TGI: 14.8 µM
HL-60(TB) leukemia
  GI50: 2.08 µM
  TGI: 9.62 µM
HOP-92 NSCLC
  GI50: 0.369 µM
  TGI: 4.82 µM
SW-620 colon
  GI50: 3.15 µM
  TGI: 11.8 µM
SF-539 CNS
  GI50: 2.24 µM
  TGI: 11.3 µM
SK-MEL-5 melanoma
  GI50: 1.83 µM
  TGI: 4.48 µM
SF-268 CNS
  GI50: 2.63 µM
  TGI: 18.7 µM
SK-MEL-28 melanoma
  GI50: 2.65 µM
  TGI: 15.6 µM
HCT-15 colon
  GI50: 3.66 µM
  TGI: 16 µM
HS 578T breast
  GI50: 1.07 µM
  TGI: 4.38 µM
NCI-H23 lung
  GI50: 2.41 µM
  TGI: 13.1 µM
U251 CNS
  GI50: 3.03 µM
  TGI: 15.2 µM
ACHN renal
  GI50: 1.69 µM
  TGI: > 100 µM
UACC-257 melanoma
  GI50: 4.59 µM
  TGI: 23 µM
M14 melanoma
  GI50: 3.33 µM
  TGI: 15.1 µM
BT-549 breast
  GI50: 1.9 µM
  TGI: 7.98 µM
